Measurements: ChEMBL document CHEMBL1772992, “Synthesis, in silico docking experiments of new 2-pyrrolidinone derivatives and study of their anti-inflammatory activity” (Bioorg Med Chem, 2011)
The source made the active and inactive calls. The calls are words filed in the database; no cut-off is given here.

How the values were obtained:
[1] = Antioxidant activity against AAPH-induced lipid peroxidation assessed as linoleic acid oxidation to diene hydroperoxide at 0.1 mM by UV-visible spectrophotometry; type: functional
Glycine max = assay: Inhibition of soybean LOX assessed as inhibition of sodium linoleate to 13-hydroperoxylinoleic acid conversion at 0.1 mM by UV-visible spectrophotometry
[2] = tested on: Radical scavenging activity; assay: Antioxidant activity assessed as DPPH free radical scavenging activity after 20 to 60 mins by spectrophotometry; type: functional; parameters: concentration or dose not given beside the values
[3] = Inhibition of soybean LOX assessed as inhibition of sodium linoleate to 13-hydroperoxylinoleic acid conversion by UV-visible spectrophotometry; parameters: species or system Glycine max
Rattus norvegicus = assay: Antiinflammatory activity in Fisher 344 rat assessed as inhibition of carrageenan-induced paw edema at 0.01 mmol/kg, ip administered simultaneously with carrageenan measured after 3.5 hrs relative to control; type: functional; settings: Fisher 344, ip

Row | SMILES | inhibition [1] | inhibition (Glycine max) | Activity [2] | IC50 [3] | inhibition in vivo at 10 µmol/kg (Rattus norvegicus)
1 | O=C1CC[C@@H](Cn2ccnc2)N1Cc1ccccc1 | 11% | 13% | 9% |  | 
2 | COC(=O)c1cncn1C[C@@H]1CCC(=O)N1Cc1ccc(C(=O)O)cc1 | inactive | inactive | 26% |  | 
3 | O=C(O)/C=C/c1ccc(O)c(O)c1 [CAFFEIC ACID] | 17% |  | 5.5% | 600 µM | 
4 | O=C(O)c1cncn1C[C@@H]1CCC(=O)N1Cc1ccccc1 | inactive | 81% | inactive |  | 
5 | COC(=O)c1ccc(CN2C(=O)CC[C@H]2Cn2cncc2C(=O)O)cc1 | 96% |  | 3% | 70.5 µM | 34%
6 | Cc1c(C)c2c(c(C)c1O)CCC(C)(C(=O)O)O2 (stereo not drawn) | 63% |  |  |  | 
7 | O=C1CC[C@@H](Cn2ccnc2)N1Cc1ccccc1-c1nn[nH]n1 | 32% | 5.2% | 30% |  | 
8 | COc1ccc2c(c1)c(CC(=O)O)c(C)n2C(=O)c1ccc(Cl)cc1 [INDOMETHACIN] |  |  |  |  | 47%
9 | O=C1CC[C@@H](Cn2ccnc2)N1Cc1cccc(O)c1 | 13% | inactive | 29% |  | 
10 | COC(=O)c1ccc(CN2C(=O)CC[C@H]2Cn2ccnc2)cc1 | 13% | inactive | 6% |  | 
11 | CC(Cc1ccc(O)c(O)c1)C(C)Cc1ccc(O)c(O)c1 (stereo not drawn) |  | 84% | 81% |  | 
12 | O=C(O)c1ccc(CN2C(=O)CC[C@H]2Cn2ccnc2)cc1 | 2% |  | 6% | 80 µM | 41%
